Data: patent US11267825B2 (AICURIS GMBH & CO. KG, priority 2017, dated 2022)

Assays:
HBV = assay: Determination of HBV DNA from the supernatants of HepAD38 cells (anti-HBV activity); assay type: cell-based, hepatitis B virus; details: Hepatitis B virus, 144 h; HBV DNA in HepAD38 supernatant at day 6; read-out: Cell Activity (EC50)
In short: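 EC50 values were obtained by non-linear regression of HBV DNA copy numbers measured by qPCR against pCH-9/3091 plasmid standards. The DNA came from filtered supernatants collected on day 6. Before that, tetracycline-withdrawn HepAD38 cells had been exposed to serial half-log compound dilutions, with tetracycline-treated cells as the non-producing control.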

HBV core protein = HBV core protein (UniProt P03146); assay type: biochemical; details: read-out: Assembly Activity (IC50); BODIPY-FL labelled core protein, assembly started with NaCl, read after 6 min
In short: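 Compounds tested at 8 concentrations in 0.5-log steps from 100, 31.6 or 10 μM against 1.0–2.0 μM BODIPY-FL-labelled Cys150 core dimers (residues 1–149), 50 mM HEPES pH 7.5. NaCl ([…] final) triggered assembly; quenching read at 6 min, 477/525 nm, with 2.5 M and 0 M NaCl as controls; EC50 by nonlinear fit.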

Chain of HBV core protein (P03146 whole entry, looked up, the tested form may be a part): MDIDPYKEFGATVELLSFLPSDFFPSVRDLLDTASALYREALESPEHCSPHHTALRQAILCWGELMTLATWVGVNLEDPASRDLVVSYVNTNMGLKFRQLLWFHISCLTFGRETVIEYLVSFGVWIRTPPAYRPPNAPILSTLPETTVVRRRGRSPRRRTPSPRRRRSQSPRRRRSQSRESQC

Nc1nc2c(s1)CN(C(=O)c1cc3c(F)cccc3[nH]1)CC2 [Example 195, 5-(4-fluoro-1H-indole-2-carbonyl)-4H,5H,6H,7H-[1,3]thiazolo[5,4-c]pyridin-2-amine]
EC50 (HBV): 1 to 10 µM | IC50 (HBV core protein): 5 to 10 µM

O=C(c1cc2ccccc2[nH]1)N1CCc2nc(CNCC3CCOC3)sc2C1 (stereo not shown) [Example 1, {[5-(1H-indole-2-carbonyl)-4H,5H,6H,7H-[1,3]thiazolo[5,4-c]pyridin-2-yl]methyl}[(oxolan-3-yl)methyl]amine]
EC50 (HBV): 1 to 10 µM | IC50 (HBV core protein): < 100 µM

Cc1cccc2[nH]c(C(=O)N3CCc4nc(NCC5CCOC5)sc4C3)cc12 (stereo not shown) [Example 124, 5-(4-methyl-1H-indole-2-carbonyl)-N-[(oxolan-3-yl)methyl]-4H,5H,6H,7H-[1,3]thiazolo[5,4-c]pyridin-2-amine]
EC50 (HBV): < 1 µM | IC50 (HBV core protein): < 5 µM

O=C(c1cc2ccccc2[nH]1)N1CCc2nc(NCC3CCCO3)sc2C1 (stereo not shown) [Example 72, 5-(1H-indole-2-carbonyl)-N-[(oxolan-2-yl)methyl]-4H,5H,6H,7H-[1,3]thiazolo[5,4-c]pyridin-2-amine]
EC50 (HBV): < 1 µM | IC50 (HBV core protein): < 5 µM

O=C(c1cc2ccccc2[nH]1)N1CCc2nc(NC(CO)CO)sc2C1 [Example 43, 2-{[5-(1H-indole-2-carbonyl)-4H,5H,6H,7H-[1,3]thiazolo[5,4-c]pyridin-2-yl]amino}propane-1,3-diol]
EC50 (HBV): < 1 µM | IC50 (HBV core protein): < 5 µM

O=C(Nc1nc2c(s1)CN(C(=O)c1cc3c(C(F)F)cc(F)cc3[nH]1)CC2)C1CCOCC1 [Example 402, N-{5-[4-(difluoromethyl)-6-fluoro-1H-indole-2-carbonyl]-4H,5H,6H,7H-[1,3]thiazolo[5,4-c]pyridin-2-yl}oxane-4-carboxamide]
EC50 (HBV): < 1 µM | IC50 (HBV core protein): < 5 µM

Cc1nc2c(s1)CN(C(=O)c1cc3cccc(OC(F)F)c3[nH]1)CC2 [Example 182, 7-(difluoromethoxy)-2-{2-methyl-4H,5H,6H,7H-[1,3]thiazolo[5,4-c]pyridine-5-carbonyl}-1H-indole]
EC50 (HBV): 1 to 10 µM | IC50 (HBV core protein): < 100 µM

O=C(c1cc2ccccc2[nH]1)N1CCc2nc(NCC(CO)CC3CCOCC3)sc2C1 (stereo not shown) [Example 226, 3-{[5-(1H-indole-2-carbonyl)-4H,5H,6H,7H-[1,3]thiazolo[5,4-c]pyridin-2-yl]amino}-2-[(oxan-4-yl)methyl]propan-1-ol]
EC50 (HBV): < 1 µM | IC50 (HBV core protein): < 5 µM

Nc1nc2c(s1)CN(C(=O)c1cc3c(Cl)ccc(F)c3[nH]1)CC2 [Example 85, 5-(4-chloro-7-fluoro-1H-indole-2-carbonyl)-4H,5H,6H,7H-[1,3]thiazolo[5,4-c]pyridin-2-amine]
EC50 (HBV): < 1 µM | IC50 (HBV core protein): < 5 µM

CCc1cc(F)cc2[nH]c(C(=O)N3CCc4nc(NCC5CCOC5)sc4C3)cc12 (stereo not shown) [Example 255, 5-(4-ethyl-6-fluoro-1H-indole-2-carbonyl)-N-[(oxolan-3-yl)methyl]-4H,5H,6H,7H-[1,3]thiazolo[5,4-c]pyridin-2-amine]
EC50 (HBV): < 1 µM | IC50 (HBV core protein): < 5 µM

COC1(CNc2nc3c(s2)CN(C(=O)c2cc4ccccc4[nH]2)CC3)CCOC1 (stereo not shown) [Example 246, 5-(1H-indole-2-carbonyl)-N-[(3-methoxyoxolan-3-yl)methyl]-4H,5H,6H,7H-[1,3]thiazolo[5,4-c]pyridin-2-amine]
EC50 (HBV): < 1 µM | IC50 (HBV core protein): < 5 µM

O=C(c1cc2ccccc2[nH]1)N1CCc2nc(NCC3(CO)CC3)sc2C1 [Example 87, [1-({[5-(1H-indole-2-carbonyl)-4H,5H,6H,7H-[1,3]thiazolo[5,4-c]pyridin-2-yl]amino}methyl)cyclopropyl]methanol]
EC50 (HBV): < 1 µM | IC50 (HBV core protein): < 5 µM

CC(O)c1cc(F)cc2[nH]c(C(=O)N3CCc4nc(N)sc4C3)cc12 (stereo not shown) [Example 15, 1-(2-{2-amino-4H,5H,6H,7H-[1,3]thiazolo[5,4-c]pyridine-5-carbonyl}-6-fluoro-1H-indol-4-yl)ethan-1-ol]
EC50 (HBV): 1 to 10 µM | IC50 (HBV core protein): 5 to 10 µM

CC(O)c1cccc2[nH]c(C(=O)N3CCc4nc(NCC5(CO)CC5)sc4C3)cc12 (stereo not shown) [Example 250, 1-{2-[2-({[1-(hydroxymethyl)cyclopropyl]methyl}amino)-4H,5H,6H,7H-[1,3]thiazolo[5,4-c]pyridine-5-carbonyl]-1H-indol-4-yl}ethan-1-ol]
EC50 (HBV): < 1 µM | IC50 (HBV core protein): < 100 µM

O=C(c1cc2ccccc2[nH]1)N1CCc2nc(NCC3CCCOC3)sc2C1 (stereo not shown) [Example 270, 5-(1H-indole-2-carbonyl)-N-[(oxan-3-yl)methyl]-4H,5H,6H,7H-[1,3]thiazolo[5,4-c]pyridin-2-amine]
EC50 (HBV): < 1 µM | IC50 (HBV core protein): < 5 µM

Nc1nc2c(s1)CN(C(=O)c1cc3ccc(Cl)cc3[nH]1)CC2 [Example 156, 5-(6-chloro-1H-indole-2-carbonyl)-4H,5H,6H,7H-[1,3]thiazolo[5,4-c]pyridin-2-amine]
EC50 (HBV): < 1 µM | IC50 (HBV core protein): < 5 µM

Nc1nc2c(s1)CN(C(=O)c1cc3c(Cl)cccc3[nH]1)CC2 [Example 210, 5-(4-chloro-1H-indole-2-carbonyl)-4H,5H,6H,7H-[1,3]thiazolo[5,4-c]pyridin-2-amine]
EC50 (HBV): < 1 µM | IC50 (HBV core protein): < 5 µM

O=C(c1cc2ccccc2[nH]1)N1CCc2nc(NCC(F)(F)F)sc2C1 [Example 118, 5-(1H-indole-2-carbonyl)-N-(2,2,2-trifluoroethyl)-4H,5H,6H,7H-[1,3]thiazolo[5,4-c]pyridin-2-amine]
EC50 (HBV): < 1 µM | IC50 (HBV core protein): < 100 µM

O=C(CNc1nc2c(s1)CN(C(=O)c1cc3ccccc3[nH]1)CC2)N1CCCCC1 [Example 233, 2-{[5-(1H-indole-2-carbonyl)-4H,5H,6H,7H-[1,3]thiazolo[5,4-c]pyridin-2-yl]amino}-1-(piperidin-1-yl)ethan-1-one]
EC50 (HBV): 1 to 10 µM | IC50 (HBV core protein): < 100 µM

O=C(c1cc2ccccc2[nH]1)N1CCc2nc(NCC3COC3)sc2C1 [Example 126, 5-(1H-indole-2-carbonyl)-N-[(oxetan-3-yl)methyl]-4H,5H,6H,7H-[1,3]thiazolo[5,4-c]pyridin-2-amine]
EC50 (HBV): 1 to 10 µM | IC50 (HBV core protein): 5 to 10 µM

CC(=O)N1CCC(C(=O)Nc2nc3c(s2)CN(C(=O)c2cc4ccccc4[nH]2)CC3)CC1 [Example 410, 1-acetyl-N-[5-(1H-indole-2-carbonyl)-4H,5H,6H,7H-[1,3]thiazolo[5,4-c]pyridin-2-yl]piperidine-4-carboxamide]
EC50 (HBV): < 1 µM | IC50 (HBV core protein): < 5 µM

O=C(c1cc2c(Cl)cccc2[nH]1)N1CCc2nc(NCC3(CO)CC3)sc2C1 [Example 63, [1-({[5-(4-chloro-1H-indole-2-carbonyl)-4H,5H,6H,7H-[1,3]thiazolo[5,4-c]pyridin-2-yl]amino}methyl)cyclopropyl]methanol]
EC50 (HBV): < 1 µM | IC50 (HBV core protein): < 5 µM

CN(C)C1(CNc2nc3c(s2)CN(C(=O)c2cc4ccccc4[nH]2)CC3)CCC1 [Example 433, N-{[1-(dimethylamino)cyclobutyl]methyl}-5-(1H-indole-2-carbonyl)-4H,5H,6H,7H-[1,3]thiazolo[5,4-c]pyridin-2-amine]
EC50 (HBV): < 1 µM | IC50 (HBV core protein): < 5 µM

O=C(c1cc2ccccc2[nH]1)N1CCc2nc(NCC3(O)CCC3)sc2C1 [Example 46, 1-({[5-(1H-indole-2-carbonyl)-4H,5H,6H,7H-[1,3]thiazolo[5,4-c]pyridin-2-yl]amino}methyl)cyclobutan-1-ol]
EC50 (HBV): < 1 µM | IC50 (HBV core protein): < 5 µM

O=C(c1cc2c(Cl)cc(F)cc2[nH]1)N1CCc2nc(NC3CCOC3)sc2C1 (stereo not shown) [Example 140, 5-(4-chloro-6-fluoro-1H-indole-2-carbonyl)-N-(oxolan-3-yl)-4H,5H,6H,7H-[1,3]thiazolo[5,4-c]pyridin-2-amine]
EC50 (HBV): < 1 µM | IC50 (HBV core protein): < 5 µM

O=C(c1cc2ccccc2[nH]1)N1CCc2nc(O)sc2C1 [Example 141, 5-(1H-indole-2-carbonyl)-4H,5H,6H,7H-[1,3]thiazolo[5,4-c]pyridin-2-ol]
EC50 (HBV): 1 to 10 µM | IC50 (HBV core protein): < 100 µM

Nc1nc2c(s1)CN(C(=O)c1cc3cc(F)c(Cl)cc3[nH]1)CC2 [Example 277, 5-(6-chloro-5-fluoro-1H-indole-2-carbonyl)-4H,5H,6H,7H-[1,3]thiazolo[5,4-c]pyridin-2-amine]
EC50 (HBV): < 1 µM | IC50 (HBV core protein): < 5 µM

COCCNc1nc2c(s1)CN(C(=O)c1cc3ccccc3[nH]1)CC2 [Example 97, 5-(1H-indole-2-carbonyl)-N-(2-methoxyethyl)-4H,5H,6H,7H-[1,3]thiazolo[5,4-c]pyridin-2-amine]
EC50 (HBV): < 1 µM | IC50 (HBV core protein): < 5 µM

CC1(C)OCC(CNc2nc3c(s2)CN(C(=O)c2cc4ccccc4[nH]2)CC3)O1 (stereo not shown) [Example 205, N-[(2,2-dimethyl-1,3-dioxolan-4-yl)methyl]-5-(1H-indole-2-carbonyl)-4H,5H,6H,7H-[1,3]thiazolo[5,4-c]pyridin-2-amine]
EC50 (HBV): < 1 µM | IC50 (HBV core protein): 5 to 10 µM

Nc1nc2c(s1)CN(C(=O)c1cc3ccc(F)cc3[nH]1)CC2 [Example 197, 5-(6-fluoro-1H-indole-2-carbonyl)-4H,5H,6H,7H-[1,3]thiazolo[5,4-c]pyridin-2-amine]
EC50 (HBV): < 1 µM | IC50 (HBV core protein): < 5 µM

COCCC(=O)Nc1nc2c(s1)CN(C(=O)c1cc3ccccc3[nH]1)CC2 [Example 19, N-[5-(1H-indole-2-carbonyl)-4H,5H,6H,7H-[1,3]thiazolo[5,4-c]pyridin-2-yl]-3-methoxypropanamide]
EC50 (HBV): < 1 µM | IC50 (HBV core protein): < 5 µM

CC(F)(F)c1cc(F)cc2[nH]c(C(=O)N3CCc4nc(NCC5(O)CCC5)sc4C3)cc12 [Example 371, 1-[({5-[4-(1,1-difluoroethyl)-6-fluoro-1H-indole-2-carbonyl]-4H,5H,6H,7H-[1,3]thiazolo[5,4-c]pyridin-2-yl}amino)methyl]cyclobutan-1-ol]
EC50 (HBV): < 1 µM | IC50 (HBV core protein): < 5 µM
